Measured values from patent US9930893B2, “Inhibitors of DXP synthase and methods of use thereof” (The Johns Hopkins University, priority 2014, dated 2018).
≈ marks a conversion by molar mass, not a printed value. Where “and” joins values, the source holds several entries; their conditions need not be identical. Equal entries are not always repeated. Where two headings read alike, the source gives them in different places.

Assays:
[1] = molecular target: T1, DXP synthase (Escherichia coli, UniProt P77488); experiment: Aromatic aldehydes as DXP synthase acceptor substrates; assay type: biochemical
T1 construct: made in house
T1 sequence (P77488 1-620): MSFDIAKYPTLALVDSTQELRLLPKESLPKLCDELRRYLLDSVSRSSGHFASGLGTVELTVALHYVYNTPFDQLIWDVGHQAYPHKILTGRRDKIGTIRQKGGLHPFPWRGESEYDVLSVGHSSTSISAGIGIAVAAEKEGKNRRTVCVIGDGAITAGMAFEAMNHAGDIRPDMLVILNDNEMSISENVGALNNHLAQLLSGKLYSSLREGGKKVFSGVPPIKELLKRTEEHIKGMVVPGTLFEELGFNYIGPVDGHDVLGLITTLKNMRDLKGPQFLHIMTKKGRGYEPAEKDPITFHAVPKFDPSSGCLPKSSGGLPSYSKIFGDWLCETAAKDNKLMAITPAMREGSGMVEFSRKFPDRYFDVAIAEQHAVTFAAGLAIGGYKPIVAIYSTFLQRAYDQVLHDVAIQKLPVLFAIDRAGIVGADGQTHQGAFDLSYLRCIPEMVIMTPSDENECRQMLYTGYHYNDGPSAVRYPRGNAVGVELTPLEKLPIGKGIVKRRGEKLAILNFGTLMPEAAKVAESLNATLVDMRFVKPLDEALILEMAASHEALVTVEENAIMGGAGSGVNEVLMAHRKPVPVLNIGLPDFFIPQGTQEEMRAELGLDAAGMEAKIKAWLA
From the text: Some ThDP-dependent enzymes are known to catalyze C—C bond formation using aromatic substrates with varying turnover efficiencies; ^[20] [21] […] As a starting point, we tested several aromatic aldehydes as acceptor substrates.

[2] = tested on: ΔtolC variant of E. coli BW25113; experiment: Antimicrobial activity against ΔtolC variant grown in CAMHB; assay type: cell-based; details: 0.63 to 5 mM, 16 hour
Method: (§1) Standardized innocula of E. coli BW25113 (approximately ˜10^5 CFU mL^−1) were treated with varying concentrations of either MAP (blue) or EAP (orange) from 0.63 to 5 mM for 16 hours, and fractional growth was determined by comparison to a no drug control. The ΔtolC variant of BW25113 was also treated with varying concentrations of MAP (black) or EAP (green) from 0.63 to 5 mM for 16 hour, and fractional growth was determined by comparison to no drug controls. Experiments were performed in duplicate, and error bars represent standard deviation.

[3] = tested on: E. coli BW25113; experiment: Antimicrobial activity against E. coli BW25113 grown in CAMHB; assay type: cell-based; details: 0.63 to 5 mM, 16 hours
Method: FIG. 9 is a chart showing antimicrobial activity of acetylphosphonates against E. coli BW25113 grown in CAMHB. Standardized cell cultures (approximately ˜10^5 CFU mL^−1) were exposed to increasing concentrations of acetylphosphonate. Fractional growth was determined at 16 hours as a percentage of the growth of no drug control. BAP (●), PentAP (▪) and HexAP (▴) were varied from 0.31 to 5 mM. OctAP (▾) was varied from 0.63 to 5 mM, and BnAP (♦) was varied from 0.16 mM to 5 mM. Each data point is the average of 3 independent experiments and the error bars are standard error.
as §1

[4] = molecular target: T2, E. coli DXP synthase (Escherichia coli, UniProt P77488); experiment: biochemical; details: competitive with respect to pyruvate
T2 construct: made in house
Method: FIG. 4A, FIG. 4B, and FIG. 4C are charts showing competitive inhibition of DXP synthase by pentylacetylphosphonate (PentAP; FIG. 4A), hexylacetylphosphonate (HexAP; FIG. 4B), and octylacetyl phosphonate (OctAP; FIG. 4C). Inhibition assays were performed as previously described^[18], [40]). […] Pyruvate concentration was varied from 12-240 μM and acetylphosphonate concentration was varied: 0 μM (∘), 10 μM (●), 25 μM (□) and 50 μM (▪). Experiments were performed in triplicate, and data were subjected to non-linear regression analysis for Ki determinations (GraphPad Prism). Representative Lineweaver-Burk plots (GraFit from Erithacus Software) are shown for PentAP (FIG. 4A), HexAP (FIG. 4B) and OctAP (FIG. 4C) to illustrate the competitive inhibition mode with respect to pyruvate.
Inhibition of DXP synthase was measured as previously described^[13], [18]. […] Acetylphosphonate concentration was varied from 0 to 250 μM. […] Experiments were performed in triplicate for BAP and in duplicate for iPrAP
In order to evaluate the inhibitory activity of BnAP against DXP synthase, a continuous spectrophotometric coupled assay was used to measure formation of DXP by monitoring IspC consumption of NADPH (340 nm). ^[2] DXP synthase reaction mixtures (previously described) including BnAP (15, 30, and 60 μM), IspC (1 μM) and NADPH (100 μM) were pre-incubated at 37° C. for 5 minutes. Initial rates were measured after the reaction was initiated by the addition of DXP synthase. Inhibition of the coupling enzyme (IspC) by BnAP was not observed up to 1.5 mM. Experiments were performed in triplicate. Double reciprocal analysis of data was carried out using GraFit version 7 from Erithacus Software.

[5] = tested on: wild-type K-12 E. coli (ATCC: MG1655); experiment: Antimicrobial activity against E. coli K-12 grown in CAMHB; assay type: cell-based
Method: FIG. 7A and FIG. 7B are charts showing representative growth curves are shown for BAP (FIG. 7A) and BnAP (FIG. 7B). Alkylacetylphosphonates exert dose-dependent delay in E. coli K-12 (MG 1655) growth in CAMHB. Fractional growth (measured at 16 h, blue arrow) was determined relative to the no drug control. Standardized cell cultures were exposed to increasing concentrations of acetylphosphonate, and growth was determined by measuring the OD600 for a period of 16 hours. Acetylphosphonate concentration was varied from 0-5 mM: No drug (light blue), 0.08 mM (orange), 0.16 mM (gray), 0.31 mM (yellow), 0.63 mM (blue), 1.25 mM (green), 2.5 mM (dark blue) and 5.0 mM (brown).
Thus, BnAP, PentAP, HexAP and OctAP, also shown to inhibit DXP synthase, were evaluated for antimicrobial activity against wild-type K-12 E. coli (ATCC: MG1655) grown in rich medium (CAMHB).

[6] = molecular target: T3, Porcine pyruvate dehydrogenase (PDH E1 subunit) (Sus scrofa, UniProt P29804); experiment: Inhibition of PDH by acetylphosphonates; assay type: biochemical; details: Table 5 (no unit in table; μM)
T3 construct: Ki^PDH; μM); Ki^PDH
T3 sequence (P29804 1-390): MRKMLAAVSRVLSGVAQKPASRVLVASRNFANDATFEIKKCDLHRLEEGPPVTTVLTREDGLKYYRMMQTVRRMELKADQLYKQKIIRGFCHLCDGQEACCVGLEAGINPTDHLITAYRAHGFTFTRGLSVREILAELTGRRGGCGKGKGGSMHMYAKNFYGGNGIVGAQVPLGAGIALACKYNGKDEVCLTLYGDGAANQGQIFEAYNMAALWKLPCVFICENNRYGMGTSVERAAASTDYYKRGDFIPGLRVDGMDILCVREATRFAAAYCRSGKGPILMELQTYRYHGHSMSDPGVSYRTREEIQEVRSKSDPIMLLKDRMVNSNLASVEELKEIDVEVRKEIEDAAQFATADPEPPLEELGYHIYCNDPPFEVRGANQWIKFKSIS
Method: FIG. 6A, FIG. 6B, and FIG. 6C are charts showing Competitive inhibition of procine PDH E1 subunit by PentAP (FIG. 6A), HexAP (FIG. 6B) and OctAP (FIG. 6C). Inhibition assays were performed as previously described^[18]. Pyruvate concentration was varied from 12.5-250 μM and acetylphosphonate concentration was varied: 0 μM (∘), 250 μM (PentAP) or 200 μM (HexAP and OctAP) (●), 500 μM (□) and 1000 μM (▪). Experiments were performed in triplicate, and data were subjected to non-linear regression analysis for Ki determinations (GraphPad Prism). Representative Lineweaver-Burk plots (GraFit from Erithacus Software) are shown for PentAP (FIG. 6A), HexAP (FIG. 6B) and OctAP (FIG. […]) to illustrate the competitive inhibition mode with respect to pyruvate.
Pyruvate dehydrogenase activity was measured spectrophotometrically as previously reported ^[38] by monitoring absorbance changes at 340 nm due to reduction of NAD^+ by PDH. Reaction mixtures contained 100 mM HEPES (pH 8.0), 1 mg/mL BSA, 0.2 mM ThDP, 0.1 mM coenzyme A, 1 mM MgCl2, 2 mM cysteine, 0.3 mM tris(2-carboxyethyl)phosphine (TCEP). The reaction was initiated with enzyme (0.01 units/ml) and activity was monitored at 30° C. For inhibition studies, reaction mixtures (described above) including BnAP (0.5, 1, 2.25 mM) were pre-incubated at 30° C. for 5 minutes. Initial rates were measured immediately after reactions were initiated by addition of PDH (0.01 units/ml). Double reciprocal analysis of data was carried out using GraFit version 7 from Erithacus Software.

[7] = tested on: E. coli K-12 (BW25113); experiment: Antimicrobial activity against E. coli K-12 grown in M9 minimal medium; assay type: cell-based; details: Escherichia coli, BW25113
From the text: The product of DXP synthase, DXP, lies at a metabolic branchpoint. DXP serves as precursor not only for essential isoprenoids, but also is essential to central metabolism as a precursor to both thiamin diphosphate and pyridoxal phosphate. Thus, evaluation of antimicrobial activity of DXP synthase inhibitors in the standard, rich growth medium (CAMHB) which contains rescuing metabolites, likely underestimates the antimicrobial activities of these agents. Standard in vitro culture conditions may have poor predictive value for these agents in vivo; access to most nutrients is thought to be more difficult from the host than in nutrient rich media.

[8] = aromatic aldehyde acceptor substrate

## O=Cc1c(O)cc([N+](=O)[O-])cc1[N+](=O)[O-] [2-Hydroxy-4,6-dinitrobenzaldehyde]
[1]
  Km higher than the natural substrate, D-GAP: ~18 fold
[1]; [8]
  Km: 512 µM
  kcat: 0.00583 ± 0.00083 s⁻¹

## CCOP(=O)(O)C(C)=O [EAP, ethyl acetylphosphonate]
[2]
  activity against ΔtolC variant: inactive
[3]
  activity against E. coli BW25113: inactive

## COP(=O)(O)C(C)=O [MAP, methyl acetylphosphonate]
[2]
  activity against ΔtolC variant: inactive
[3]
  activity against E. coli BW25113: inactive

## CCCCCCCCOP(=O)(O)C(C)=O [OctAP, Octylacetylphosphonate]
[4]; read-out: Ki (DXP synthase)
  Ki: 6 ± 0.2 µM
[5]; FIG. 10, in words
  antimicrobial effects against E. coli (MG1655): inactive
[5]; rich medium (CAMHB)
  inactive up to: > 5 mM and > 1210 ug/mL
[6]; read-out: Ki^PDH
  Ki: 154 ± 14 µM
[7]; M9 minimal medium, preliminary, read-out: MIC
  MIC: 1250 µM (≈ 295 µg/mL)

## CCCCCOP(=O)(O)C(C)=O [PentAP, Pentylacetylphosphonate]
[4]; Ki (DXP synthase)
  Ki: 9.9 ± 0.4 µM
[5]; Escherichia coli, MG1655, 16 h, read-out: minimum inhibitory concentration (MIC90)
  MIC90: 1250 µM (≈ 243 µg/mL)
[6]; Ki^PDH
  Ki: 250 ± 31 µM
[7]
  MIC: 12500 µM (≈ 2430 µg/mL)
